Data taken from patent US11773088B2, “KCNT1 inhibitors and methods of use” (Praxis Precision Medicines, Inc., priority 2020, dated 2023).

The compounds below were run against T1, KCNT1 (KNa1.1, Slack) (Homo sapiens, UniProt Q5JUK3) (assay: KCNT1 patch clamp assay (SyncroPatch 384PE, HEK-TREX inducible cell line)). Conditions: wild-type KCNT1, HEK-TREX cells, automated perforated patch clamp, step to 0 mV, room temperature; read-out: KCNT1-WT IC50.
T1 construct: expressed in transfected cells; host or cells: HEK-TREX (tetracycline-inducible HEK cell line)
T1 sequence (Q5JUK3 1-1230): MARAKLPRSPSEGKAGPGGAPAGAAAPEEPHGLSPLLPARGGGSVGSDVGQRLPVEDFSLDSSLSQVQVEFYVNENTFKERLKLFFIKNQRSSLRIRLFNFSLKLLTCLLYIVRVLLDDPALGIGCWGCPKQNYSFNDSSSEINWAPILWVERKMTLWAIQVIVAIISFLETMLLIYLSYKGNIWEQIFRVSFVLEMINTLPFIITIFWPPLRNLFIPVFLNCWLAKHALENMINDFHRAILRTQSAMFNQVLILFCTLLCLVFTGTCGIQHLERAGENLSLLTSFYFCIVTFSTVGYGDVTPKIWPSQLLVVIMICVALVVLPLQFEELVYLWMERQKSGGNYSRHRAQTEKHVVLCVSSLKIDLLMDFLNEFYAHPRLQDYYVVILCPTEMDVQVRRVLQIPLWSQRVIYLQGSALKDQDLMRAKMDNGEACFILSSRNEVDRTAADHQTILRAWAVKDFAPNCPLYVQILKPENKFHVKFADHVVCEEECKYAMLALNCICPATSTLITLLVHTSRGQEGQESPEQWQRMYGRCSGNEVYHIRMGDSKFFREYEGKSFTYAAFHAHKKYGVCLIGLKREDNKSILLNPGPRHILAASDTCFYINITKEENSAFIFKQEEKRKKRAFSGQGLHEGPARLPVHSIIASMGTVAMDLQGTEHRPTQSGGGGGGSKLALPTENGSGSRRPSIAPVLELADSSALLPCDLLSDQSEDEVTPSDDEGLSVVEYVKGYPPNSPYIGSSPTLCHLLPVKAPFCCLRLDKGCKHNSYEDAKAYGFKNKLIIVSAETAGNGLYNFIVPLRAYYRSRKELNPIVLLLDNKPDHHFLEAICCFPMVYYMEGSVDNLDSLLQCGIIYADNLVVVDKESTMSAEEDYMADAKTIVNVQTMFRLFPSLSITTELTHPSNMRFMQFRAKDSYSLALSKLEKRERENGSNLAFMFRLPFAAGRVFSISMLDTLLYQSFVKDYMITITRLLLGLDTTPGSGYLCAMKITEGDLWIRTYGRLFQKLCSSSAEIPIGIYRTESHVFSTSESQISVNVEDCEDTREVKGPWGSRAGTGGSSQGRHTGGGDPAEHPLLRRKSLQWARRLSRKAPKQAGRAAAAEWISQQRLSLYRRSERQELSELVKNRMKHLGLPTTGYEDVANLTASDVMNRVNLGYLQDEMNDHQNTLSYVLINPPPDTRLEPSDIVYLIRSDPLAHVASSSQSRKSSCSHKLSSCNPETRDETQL
Assay type: cell-based
Method: Inhibition of KCNT1 (KNa1.1, Slack) was evaluated using a tetracycline inducible cell line (HEK-TREX). Currents were recorded using the SyncroPatch 384PE automated, patch clamp system. Pulse generation and data collection were performed with PatchController384 V1.3.0 and DataController384 V1.2.1 (Nanion Technologies). The access resistance and apparent membrane capacitance were estimated using built-in protocols. Current were recorded in perforated patch mode (10 μM escin) from a population of cells. The cells were lifted, triturated, and resuspended at 800,000 cells/ml. The cells were allowed to recover in the cell hotel prior to experimentation. Currents were recorded at room temperature. The external solution contained the following (in mM): NaCl 105, NMDG 40, KCl 4, MgCl2 1, CaCl2) 5 and HEPES 10 (pH=7.4, Osmolarity ˜300 mOsm). The extracellular solution was used as the wash, reference and compound delivery solution. The internal solution contained the following (in mM): NaCl 70, KF 70, KCl 10, EGTA 5, HEPES 5 and Escin 0.01 (pH=7.2, Osmolarity ˜295 mOsm). Escin is made at a 5 mM stock in water, aliquoted, and stored at −20° C. The compound plate was created at 2× concentrated in the extracellular solution. The compound was diluted to 1:2 when added to the recording well. The amount of DMSO in the extracellular solution was held constant at the level used for the highest tested concentration. A holding potential of −80 mV with a 100 ms step to 0 mV was used. Mean current was measured during the step to 0 mV. […] The average mean current from 3 sweeps was calculated and the % inhibition of each compound was calculated. The % Inhibition as a function of the compound concentration was fit with a Hill equation to derive IC50, slope, min and max parameters. If KCNT1 inhibition was less than 50% at the highest tested concentration or if an IC50 could not be calculated, then a percent inhibition was reported in place of the IC50.
In this table, “A” indicates IC50 of less than or equal to 1 μM; “B” indicates inhibition of between 1 μM to 20 μM; and “C” indicates inhibition of greater than or equal to 20 μM.
With `CC(C)c1cc(C(=O)N[C@@H](C)c2nc(-c3ccnc(C4CC4)c3)no2)n(C)n1` [Compound 1, (S)—N-(1-(3-(2-cyclopropylpyridin-4-yl)-1,2,4-oxadiazol-5-yl)ethyl)-3-isopropyl-1-methyl-1H-pyrazole-5-carboxamide] the IC50 was no more than 1 µM.
`CC(C)n1nccc1C(=O)N[C@@H](C)c1nc(-c2ccnc(C3CC3)c2)no1` [Compound 2, (S)—N-(1-(3-(2-cyclopropylpyridin-4-yl)-1,2,4-oxadiazol-5-yl)ethyl)-1-isopropyl-1H-pyrazole-5-carboxamide] showed an IC50 of no more than 1 µM.
`C[C@H](NC(=O)c1cc(C2CC2)nn1C)c1nc(-c2ccnc(C3CC3)c2)no1` [Compound 3, (S)-3-cyclopropyl-N-(1-(3-(2-cyclopropylpyridin-4-yl)-1,2,4-oxadiazol-5-yl)ethyl)-1-methyl-1H-pyrazole-5-carboxamide] showed an IC50 of no more than 1 µM.
For `C[C@H](NC(=O)c1cc(C(C)(C)C)nn1C)c1nc(-c2ccnc(C3CC3)c2)no1` [Compound 4, (S)-3-(tert-butyl)-N-(1-(3-(2-cyclopropylpyridin-4-yl)-1,2,4-oxadiazol-5-yl)ethyl)-1-methyl-1H-pyrazole-5-carboxamide], the IC50 was no more than 1 µM.
`CCn1nccc1C(=O)N[C@@H](C)c1nc(-c2ccnc(C3CC3)c2)no1` [Compound 5, (S)—N-(1-(3-(2-cyclopropylpyridin-4-yl)-1,2,4-oxadiazol-5-yl)ethyl)-1-ethyl-1H-pyrazole-5-carboxamide] was tested, and the IC50 was no more than 1 µM.
`C[C@H](NC(=O)c1ccnn1C(C)(C)C)c1nc(-c2ccnc(C3CC3)c2)no1` [Compound 6, (S)-1-(tert-butyl)-N-(1-(3-(2-cyclopropylpyridin-4-yl)-1,2,4-oxadiazol-5-yl)ethyl)-1H-pyrazole-5-carboxamide] was tested, and the IC50 was no more than 1 µM.
With `C[C@H](NC(=O)c1ccnn1C1CCC1)c1nc(-c2ccnc(C3CCC3)c2)no1` [Compound 7, (S)-1-cyclobutyl-N-(1-(3-(2-cyclobutylpyridin-4-yl)-1,2,4-oxadiazol-5-yl)ethyl)-1H-pyrazole-5-carboxamide] the IC50 was 1 to 20 µM.
`C[C@H](NC(=O)c1cc(C(F)F)nn1C)c1nc(-c2ccnc(C3CCC3)c2)no1` [Compound 8, (S)—N-(1-(3-(2-cyclobutylpyridin-4-yl)-1,2,4-oxadiazol-5-yl)ethyl)-3-(difluoromethyl)-1-methyl-1H-pyrazole-5-carboxamide] was tested, and the IC50 was no more than 1 µM.
